Test results from US8143212B2 (Vicuron Pharmaceuticals Inc., priority 2002, dated 2012).
Values after ≈ are worked out from the molar mass of the structure shown. Values joined by “and” are separate entries in the source; they are usually repeats but may differ in a detail not shown here. Identical values can stand only once. Like-named read-outs stand apart in the source and are kept apart here.

How the values were obtained:
[1] = tested on: S. pneumoniae; assay: Murine thigh-infection model (time kill, dosing regimen, PK/PD, neutrophils; Tables 31-33); format: in vivo, mice; conditions: for 1 log kill mg/kg / 2 log kill mg/kg: total dose over 6 days
Method: Each point represents the mean of 4 thighs. Five dose levels, ranging 16-fold were used.
Five different doses (two-fold increases) were used. […] Each point represents the mean of 4 thighs.
Each point represents the mean of four thighs.
Each point represents the mean value from 4 thighs. The static dose, and the doses associated with a 1 and 2 log kill were calculated from the parameters estimated by non-linear regression using the Hill equation.

[2] = tested on: skin and soft tissue infections (SSTI); assay: Phase II SSTI trial: clinical response; format: in vivo, human
Method: This randomized, controlled study evaluated the safety and efficacy of two dose regimens of dalbavancin.
There were 62 patients randomized into the study; all received at least one dose of study medication. Four study populations were evaluated for safety and efficacy and were defined as follows: The intent-to-treat (ITT) population included all patients who received at least one dose of study drug (all randomized study subjects).
The effectiveness of the three treatment regimens was determined by assessing the patients' clinical response and the documented or presumed microbiological responses. The primary efficacy endpoint was clinical response at the follow-up visit for the clinically evaluable population. Clinical response, for both EOT and FU visits, was categorized as success (cure or improvement) or failure (including indeterminate results). Patients classified as successes must not have received additional systemic antibacterial treatment for their infection. Failure was defined as persistence of one or more local or systemic signs and symptoms of SSTI such that treatment with new or additional systemic antibacterial agents was required for the SSTI.

[3] = tested on: E coli; assay: MIC, microbiological activity (Table 3); format: cell-based
[4] = tested on: P vulgaris; assay: MIC, microbiological activity (Table 3); format: cell-based; conditions: L 79 P vulgaris; read-out: MIC
[5] = human, in vivo
Method: The peak concentrations (Cmax) were obtained directly from the observed data. The area under the plasma concentration-time curve (AUC) were calculated using the linear trapezoidal rule.
Clinical Study VER001-13 examined subjects with mild and moderate renal impairment and Clinical Study VER001-1 examined subjects with severe renal impairment and subjects with end-stage renal disease (ESRD). Matched control subjects were enrolled in all studies. […] Subjects with ESRD were dependent on dialysis through the course of the study (3 times weekly).

[6] = tested on: human α-glycoprotein; conditions: pH 7.4
Method: Integrated heat effects, after correction for heats of dilution, were analyzed by non-linear regression using a simple single-site binding model with the standard Microcal ORIGIN software package. Raw data (μcal/sec) for each injection were integrated to give the total heat effect per addition, then divided by amount of injectant to give kcal/mole of injectant. The same integration was applied for control dilution effects, and this was subtracted from the actual titration data. This provided a differential of the binding curve in which the extent of binding is proportional to the total heat liberated (or absorbed). This was then analyzed by non-linear regression methods in terms of various standard binding models. The simplest model assumes simple non-competitive binding equilibrium, and gives three parameters:

[7] = tested on: C albicans; assay: MIC, microbiological activity (Table 3); format: cell-based; conditions: L 145 C albicans SKF2270; read-out: MIC

## CN[C@H]1C(=O)N[C@@H]2Cc3ccc(cc3)Oc3cc4cc(c3O[C@@H]3O[C@H](C(=O)O)[C@@H](O)[C@H](O)[C@H]3NC(=O)CCCCCCCCC(C)C)Oc3ccc(cc3Cl)[C@@H](O)[C@@H]3NC(=O)[C@H](NC(=O)[C@@H]4NC(=O)[C@@H](NC2=O)c2cc(cc(O)c2Cl)Oc2cc1ccc2O)c1ccc(O)c(c1)-c1c(O[C@H]2O[C@H](CO)[C@@H](O)[C@H](O)[C@@H]2O)cc(O)cc1[C@@H](C(=O)NCCCN(C)C)NC3=O [Dalbavancin]
[1]; SP1329, q 24 h regimen
  Static Effect f24AUC/MIC: 18.0
  Static Effect mg/kg/24 h: 0.90 mg/kg/24 h
[1]; SP1396, q 72 h regimen
  1 Log Kill f24AUC/MIC: 4.3
  1 Log Kill mg/kg/24 h: 0.61 mg/kg/24 h
  2 Log Kill f24AUC/MIC: 4.8
  2 Log Kill mg/kg/24 h: 0.69 mg/kg/24 h
  Static Effect f24AUC/MIC: 4.0
  Static Effect mg/kg/72 h: 0.52 mg/kg/72 h
[1]; SP10813, q 12 h
  1 log kill mg/kg: 2.8 mg/kg
  2 log kill mg/kg: 3.5 mg/kg
[1]; SP10813, q 24 h
  1 log kill mg/kg: 1.54 mg/kg
  2 log kill mg/kg: 1.75 mg/kg
[1]; SP10813, q 24 h regimen
  1 Log Kill f24AUC/MIC: 8.7
  1 Log Kill mg/kg/24 h: 1.54 mg/kg/24 h
  2 Log Kill f24AUC/MIC: 9.9
  2 Log Kill mg/kg/24 h: 1.75 mg/kg/24 h
  Static Effect f24AUC/MIC: 7.5
  Static Effect mg/kg/24 h: 1.34 mg/kg/24 h
[1]; SP10813, q 36 h
  1 log kill mg/kg: 1.53 mg/kg
  2 log kill mg/kg: 1.81 mg/kg
[1]; SP10813, q 72 h
  1 log kill mg/kg: 0.77 mg/kg
  2 log kill mg/kg: 0.82 mg/kg
[1]; SP10813, q 72 h regimen
  1 Log Kill f24AUC/MIC: 1.6
  1 Log Kill mg/kg/24 h: 0.77 mg/kg/24 h
  2 Log Kill f24AUC/MIC: 1.6
  2 Log Kill mg/kg/24 h: 0.82 mg/kg/24 h
  Static Effect f24AUC/MIC: 1.4
  Static Effect mg/kg/72 h: 0.71 mg/kg/72 h
[1]; all strains, 6 day study
  drop in cfu: > 4 log10
[1]; every 24 h dosing
  free drug 24 h AUC/MIC associated with a static effect: 17.6±6.9
[1]; over the 6 days of therapy, net static effect, 1 or 2 log kill
  free drug AUC/MIC required for efficacy: ~100
[1]; single doses, highest doses studied
  extent of killing: > 2 log
[2]; Clinically evaluable at EOT, Single-dose (1100 mg)
  Clinical Success Rate: 13/16 (61.5) %
[2]; Clinically evaluable at EOT, Two-dose (1000/500 mg)
  Clinical Success Rate: 16/17 (94.1) %
[2]; Clinically evaluable at FU, Single-dose (1100 mg)
  Clinical Success Rate: 8/13 (61.5) %
[2]; Clinically evaluable at FU, Two-dose (1000/500 mg)
  Clinical Success Rate: 16/17 (94.1) %
[2]; ITT at EOT, Single-dose (1100 mg)
  Clinical Success Rate: 15/20 (75.0) %
[2]; ITT at EOT, Two-dose (1000/500 mg)
  Clinical Success Rate: 19/21 (90.5) %
[2]; ITT at FU, Single-dose (1100 mg)
  Clinical Success Rate: 12/20 (60.0) %
[2]; ITT at FU, Two-dose (1000/500 mg)
  Clinical Success Rate: 19/21 (90.5) %
[2]; MITT at EOT, Single-dose (1100 mg)
  Clinical Success Rate: 10/14 (71.4) %
[2]; MITT at EOT, Two-dose (1000/500 mg)
  Clinical Success Rate: 12/13 (92.3) %
[2]; MITT at FU, Single-dose (1100 mg)
  Clinical Success Rate: 7/14 (50.0) %
[2]; MITT at FU, Two-dose (1000/500 mg)
  Clinical Success Rate: 12/13 (92.3) %
[2]; MITT population with MRSA, FU assessment, single-dose
  Clinical Success Rate: 50%
[2]; MITT population with MRSA, FU assessment, two-dose
  Clinical Success Rate: 80%
[2]; Microbiologically evaluable at EOT, Single-dose (1100 mg)
  Clinical Success Rate: 10/13 (76.9) %
[2]; Microbiologically evaluable at EOT, Two-dose (1000/500 mg)
  Clinical Success Rate: 10/11 (90.9) %
[2]; Microbiologically evaluable at FU, Single-dose (1100 mg)
  Clinical Success Rate: 6/11 (54.5) %
[2]; Microbiologically evaluable at FU, Two-dose (1000/500 mg)
  Clinical Success Rate: 10/11 (90.9) %
[2]; clinically-evaluable population, FU assessment, single-dose: 1100 mg IV day 1
  Clinical Success Rate: 61.5%
[2]; clinically-evaluable population, FU assessment, two-dose: 1 g IV day 1 + 500 mg IV day 8
  Clinical Success Rate: 94.1% and 94%
[3]; G 16440 E coli iperperm
  MIC: 8 µg/mL (≈ 4.4 µM)
[3]; L 47 E coli SKF12140, read-out: MIC
  MIC: > 32 µg/mL
[4]
  MIC: > 32 µg/mL
[5]
  tolerability: well tolerated
[5]; 1120 mg
  Cmax: 325 mg/L
[6]; 1 μM
  Calculated percent Binding: 73.0%
[6]; 10 μM
  Calculated percent Binding: 68.2%
[6]; 100 μM
  Calculated percent Binding: 26.2%
[6]; 165 μM
  Calculated percent Binding: 16.9%
[6]; 250 μM
  Calculated percent Binding: 11.4%
[6]; 500 μM
  Calculated percent Binding: 5.9%
[7]
  MIC: > 32 µg/mL
